Experimental data taken from EP3262942A1, “SELENODIARYLS FOR USE AS MICROBICIDE OR AS MEDICINE” (Evonik Degussa GmbH, priority 2016, dated 2018).

What was measured:
Penicillium notatum = assay: Growth test in microtiter plates, HA medium, 24 h, visual evaluation; format: cell-based; parameters: key: +: kein Wachstum im Vergleich zur Wachstumskontrolle; -: Wachstum wie Wachstumskontrolle
Botrytis cinerea = assay: microbe, parasite or virus in culture; format: cell-based
Candida albicans = assay: Growth test in microtiter plates, HA medium, 24 h, visual evaluation; format: cell-based; parameters: key: +: kein Wachstum im Vergleich zur Wachstumskontrolle; -: Wachstum wie Wachstumskontrolle
P. infestans = assay: microbe, parasite or virus in culture; format: cell-based, Phytophthora infestans
M. grisea H2O = assay: microbe, parasite or virus in culture; format: cell-based, Magnaporthe grisea
M. grisea CM = assay: microbe, parasite or virus in culture; format: cell-based, Magnaporthe grisea
Mucor miehei = assay: Growth test in microtiter plates, HA medium, 24 h, visual evaluation; format: cell-based; parameters: key to Aktivität gegenüber M. miehei: +: kein Wachstum im Vergleich zur Wachstumskontrolle; -: Wachstum wie Wachstumskontrolle
Paecilomyces variotii = assay: as above; format: cell-based; parameters: key: +: kein Wachstum im Vergleich zur Wachstumskontrolle; -: Wachstum wie Wachstumskontrolle
[1] = system: alle getesteten Pathogene; format: cell-based; details: 5-50 µg/mL
Lepidium sativum = assay: Crop plant growth test, seeds on filter discs, 4 days, visual evaluation; format: in vivo
Description: (§1) Testsubstanzen und Kontrollen werden auf Filterrondellen in Mikrotiterplatten (48 well) vorgelegt und das verwendete Lösungsmittel (DMSO) über Lyophilisation entfernt. Anschließend werden ca. 12 Samen pro Vertiefung (Setaria italical Lepidium sativum) zugeben, mit 200 µl sterilem Leitungswasser pro Vertiefung versetzt, mit einem Deckel versehen und in einer feuchten Kammer für 4 Tage im Pflanzenbrutschrank inkubiert (16h-Licht-8h-Dunkel-Rhythmus). Die Auswertung des Tests erfolgt optisch (+: mind. 75 % Wachstumshemmung im Vergleich zur Kontrolle, -: weniger als 75 % Wachstumshemmung im Vergleich zur Kontrolle.

Setaria italica = assay: as above; format: in vivo
Description: as §1

[2] = Phytophthora infestans, 24 h, read-out: Aktivität gegenüber P. infestans
[3] = Pyricularia grisea, H2O, 24 h, read-out: Aktivität gegenüber M. grisea H2O
[4] = Pyricularia grisea, 24 h, read-out: Aktivität gegenüber M. grisea CM

CC(C)(C)c1cc([Se]c2cc(C(C)(C)C)cc(C(C)(C)C)c2O)c(O)c(C(C)(C)C)c1 [Verbindung 14, Bis(3,5-di-tert-butyl-2-hydroxyphenyl)selen]
Aktivität gegenüber P. notatum (Penicillium notatum; 10µg/mL): - | Aktivität gegenüber P. notatum (Penicillium notatum; 50µg/mL): - | inhibition of growth at 5 µg/mL (Botrytis cinerea; Botrytis cinerea, 24 h, 5µg/mL, read-out: Aktivität gegenüber B. cinerea): 0 to 25% | inhibition of growth at 10 µg/mL (Botrytis cinerea; Botrytis cinerea, 24 h, 10µg/mL, read-out: Aktivität gegenüber B. cinerea): 0 to 25% | inhibition of growth at 25 µg/mL (Botrytis cinerea; Botrytis cinerea, 24 h, 25µg/mL, read-out: Aktivität gegenüber B. cinerea): 0 to 25% | inhibition of growth at 50 µg/mL (Botrytis cinerea; Botrytis cinerea, 24 h, 50µg/mL, read-out: Aktivität gegenüber B. cinerea): 0 to 25% | Aktivität gegenüber C. albicans (Candida albicans; 10µg/mL): - | Aktivität gegenüber C. albicans (Candida albicans; 50µg/mL): - | inhibition of growth at 5 µg/mL (P. infestans; [2]): 0 to 25% | inhibition of growth at 10 µg/mL (P. infestans; [2]): 0 to 25% | inhibition of growth at 25 µg/mL (P. infestans; [2]): 0 to 25% | inhibition of growth at 50 µg/mL (P. infestans; [2]): 0 to 25% | inhibition of growth at 5 µg/mL (M. grisea H2O; [3]): 0 to 25% | inhibition of growth at 10 µg/mL (M. grisea H2O; [3]): 0 to 25% | inhibition of growth at 25 µg/mL (M. grisea H2O; [3]): 0 to 25% | inhibition of growth at 50 µg/mL (M. grisea H2O; [3]): 0 to 25% | inhibition of growth at 5 µg/mL (M. grisea CM; [4]): 0 to 25% | inhibition of growth at 10 µg/mL (M. grisea CM; [4]): 0 to 25% | inhibition of growth at 25 µg/mL (M. grisea CM; [4]): 0 to 25% | inhibition of growth at 50 µg/mL (M. grisea CM; [4]): 0 to 25% | Aktivität gegenüber M. miehei (Mucor miehei; 10µg/mL): - | Aktivität gegenüber M. miehei (Mucor miehei; 50µg/mL): - | Aktivität gegenüber P. variotii (Paecilomyces variotii; 10µg/mL): - | Aktivität gegenüber P. variotii (Paecilomyces variotii; 50µg/mL): - | Aktivität im Wachstums- und Keimungshemmungstest gegen die getesteten Pathogene [1]: weder im Wachstums- noch im Keimungshemmungstest im verwendeten Konzentrationsbereich eine entsprechende Aktivität | Aktivität gegenüber Nutzpflanzen: L. sativum (Lepidium sativum; 10µg/R): - (weniger als 75 % Wachstumshemmung im Vergleich zur Kontrolle) | Aktivität gegenüber Nutzpflanzen: L. sativum (Lepidium sativum; 20µg/R): - (weniger als 75 % Wachstumshemmung im Vergleich zur Kontrolle) | Aktivität gegenüber Nutzpflanzen: L. sativum (Lepidium sativum; 50µg/R): - (weniger als 75 % Wachstumshemmung im Vergleich zur Kontrolle) | Aktivität gegenüber Nutzpflanzen: S. italica (Setaria italica; 10µg/R): - (weniger als 75 % Wachstumshemmung im Vergleich zur Kontrolle) | Aktivität gegenüber Nutzpflanzen: S. italica (Setaria italica; 20µg/R): - (weniger als 75 % Wachstumshemmung im Vergleich zur Kontrolle) | Aktivität gegenüber Nutzpflanzen: S. italica (Setaria italica; 50µg/R): - (weniger als 75 % Wachstumshemmung im Vergleich zur Kontrolle)

COc1cc(C)c([Se]c2cc(OC)c(OC)cc2C)cc1OC [Verbindung 27, Bis(3,4-dimethoxy-6-methylphenyl)selen]
Aktivität gegenüber P. notatum (Penicillium notatum; 10µg/mL): - | Aktivität gegenüber P. notatum (Penicillium notatum; 50µg/mL): - | Aktivität gegenüber B. cinerea (Botrytis cinerea; 5µg/mL): - (key: +++: mehr als 75 % der Sporen nicht gekeimt; ++: zwischen 50 und 75 % der Sporen nicht gekeimt; +: zwischen 25 und 50 % der Sporen nicht gekeimt; -: zwischen 0 und 25 % der Sporen nicht gekeimt) | Aktivität gegenüber B. cinerea (Botrytis cinerea; 10µg/mL): - (key: +++: mehr als 75 % der Sporen nicht gekeimt; ++: zwischen 50 und 75 % der Sporen nicht gekeimt; +: zwischen 25 und 50 % der Sporen nicht gekeimt; -: zwischen 0 und 25 % der Sporen nicht gekeimt) | Aktivität gegenüber B. cinerea (Botrytis cinerea; 25µg/mL): - (key: +++: mehr als 75 % der Sporen nicht gekeimt; ++: zwischen 50 und 75 % der Sporen nicht gekeimt; +: zwischen 25 und 50 % der Sporen nicht gekeimt; -: zwischen 0 und 25 % der Sporen nicht gekeimt) | Aktivität gegenüber B. cinerea (Botrytis cinerea; 50µg/mL): - (key: +++: mehr als 75 % der Sporen nicht gekeimt; ++: zwischen 50 und 75 % der Sporen nicht gekeimt; +: zwischen 25 und 50 % der Sporen nicht gekeimt; -: zwischen 0 und 25 % der Sporen nicht gekeimt) | Aktivität gegenüber C. albicans (Candida albicans; 10µg/mL): - | Aktivität gegenüber C. albicans (Candida albicans; 50µg/mL): - | Aktivität gegenüber P. infestans (P. infestans; 5µg/mL): - (zwischen 0 und 25 % der Sporen nicht gekeimt) | Aktivität gegenüber P. infestans (P. infestans; 10µg/mL): - (zwischen 0 und 25 % der Sporen nicht gekeimt) | Aktivität gegenüber P. infestans (P. infestans; 25µg/mL): - (zwischen 0 und 25 % der Sporen nicht gekeimt) | Aktivität gegenüber P. infestans (P. infestans; 50µg/mL): - (zwischen 0 und 25 % der Sporen nicht gekeimt) | Wirksamkeit gegenüber P. infestans (P. infestans): keine Wirkung | Aktivität gegenüber M. grisea H2O (M. grisea H2O; 5µg/mL): - (zwischen 0 und 25 % der Sporen nicht gekeimt) | Aktivität gegenüber M. grisea H2O (M. grisea H2O; 10µg/mL): - (zwischen 0 und 25 % der Sporen nicht gekeimt) | Aktivität gegenüber M. grisea H2O (M. grisea H2O; 25µg/mL): - (zwischen 0 und 25 % der Sporen nicht gekeimt) | Aktivität gegenüber M. grisea H2O (M. grisea H2O; 50µg/mL): + (zwischen 25 und 50 % der Sporen nicht gekeimt) | Aktivität gegenüber M. grisea CM (M. grisea CM; 5µg/mL): - (zwischen 0 und 25 % der Sporen nicht gekeimt) | Aktivität gegenüber M. grisea CM (M. grisea CM; 10µg/mL): - (zwischen 0 und 25 % der Sporen nicht gekeimt) | Aktivität gegenüber M. grisea CM (M. grisea CM; 25µg/mL): + (zwischen 25 und 50 % der Sporen nicht gekeimt) | Aktivität gegenüber M. grisea CM (M. grisea CM; 50µg/mL): + (zwischen 25 und 50 % der Sporen nicht gekeimt) | Aktivität gegenüber M. miehei (Mucor miehei; 10µg/mL): - | Aktivität gegenüber M. miehei (Mucor miehei; 50µg/mL): - | Aktivität gegenüber P. variotii (Paecilomyces variotii; 10µg/mL): - | Aktivität gegenüber P. variotii (Paecilomyces variotii; 50µg/mL): - | Aktivität gegenüber Nutzpflanzen: L. sativum (Lepidium sativum; 10µg/R): - (weniger als 75 % Wachstumshemmung im Vergleich zur Kontrolle) | Aktivität gegenüber Nutzpflanzen: L. sativum (Lepidium sativum; 20µg/R): - (weniger als 75 % Wachstumshemmung im Vergleich zur Kontrolle) | Aktivität gegenüber Nutzpflanzen: L. sativum (Lepidium sativum; 50µg/R): - (weniger als 75 % Wachstumshemmung im Vergleich zur Kontrolle) | Aktivität gegenüber Nutzpflanzen: S. italica (Setaria italica; 10µg/R): + (mind. 75 % Wachstumshemmung im Vergleich zur Kontrolle) | Aktivität gegenüber Nutzpflanzen: S. italica (Setaria italica; 20µg/R): - (weniger als 75 % Wachstumshemmung im Vergleich zur Kontrolle) | Aktivität gegenüber Nutzpflanzen: S. italica (Setaria italica; 50µg/R): + (mind. 75 % Wachstumshemmung im Vergleich zur Kontrolle)

COc1cc(C)c([Se]c2c(C)cc(OC)c(OC)c2OC)c(OC)c1OC [Verbindung 28, Bis(6-methyl-2,3,4-trimethoxyphenyl)selen]
Aktivität gegenüber P. notatum (Penicillium notatum; 10µg/mL): - | Aktivität gegenüber P. notatum (Penicillium notatum; 50µg/mL): - | Aktivität gegenüber B. cinerea (Botrytis cinerea; 5µg/mL): - (key: +++: mehr als 75 % der Sporen nicht gekeimt; ++: zwischen 50 und 75 % der Sporen nicht gekeimt; +: zwischen 25 und 50 % der Sporen nicht gekeimt; -: zwischen 0 und 25 % der Sporen nicht gekeimt) | Aktivität gegenüber B. cinerea (Botrytis cinerea; 10µg/mL): - (key: +++: mehr als 75 % der Sporen nicht gekeimt; ++: zwischen 50 und 75 % der Sporen nicht gekeimt; +: zwischen 25 und 50 % der Sporen nicht gekeimt; -: zwischen 0 und 25 % der Sporen nicht gekeimt) | Aktivität gegenüber B. cinerea (Botrytis cinerea; 25µg/mL): - (key: +++: mehr als 75 % der Sporen nicht gekeimt; ++: zwischen 50 und 75 % der Sporen nicht gekeimt; +: zwischen 25 und 50 % der Sporen nicht gekeimt; -: zwischen 0 und 25 % der Sporen nicht gekeimt) | Aktivität gegenüber B. cinerea (Botrytis cinerea; 50µg/mL): - (key: +++: mehr als 75 % der Sporen nicht gekeimt; ++: zwischen 50 und 75 % der Sporen nicht gekeimt; +: zwischen 25 und 50 % der Sporen nicht gekeimt; -: zwischen 0 und 25 % der Sporen nicht gekeimt) | Aktivität gegenüber C. albicans (Candida albicans; 10µg/mL): - | Aktivität gegenüber C. albicans (Candida albicans; 50µg/mL): - | Aktivität gegenüber P. infestans (P. infestans; 5µg/mL): - (zwischen 0 und 25 % der Sporen nicht gekeimt) | Aktivität gegenüber P. infestans (P. infestans; 10µg/mL): - (zwischen 0 und 25 % der Sporen nicht gekeimt) | Aktivität gegenüber P. infestans (P. infestans; 25µg/mL): - (zwischen 0 und 25 % der Sporen nicht gekeimt) | Aktivität gegenüber P. infestans (P. infestans; 50µg/mL): - (zwischen 0 und 25 % der Sporen nicht gekeimt) | Wirksamkeit gegenüber P. infestans (P. infestans): keine Wirkung | Aktivität gegenüber M. grisea H2O (M. grisea H2O; 5µg/mL): +++ (mehr als 75 % der Sporen nicht gekeimt) | Aktivität gegenüber M. grisea H2O (M. grisea H2O; 10µg/mL): +++ (mehr als 75 % der Sporen nicht gekeimt) | Aktivität gegenüber M. grisea H2O (M. grisea H2O; 25µg/mL): +++ (mehr als 75 % der Sporen nicht gekeimt) | Aktivität gegenüber M. grisea H2O (M. grisea H2O; 50µg/mL): +++ (mehr als 75 % der Sporen nicht gekeimt) | Aktivität gegenüber M. grisea CM (M. grisea CM; 5µg/mL): +++ (mehr als 75 % der Sporen nicht gekeimt) | Aktivität gegenüber M. grisea CM (M. grisea CM; 10µg/mL): +++ (mehr als 75 % der Sporen nicht gekeimt) | Aktivität gegenüber M. grisea CM (M. grisea CM; 25µg/mL): +++ (mehr als 75 % der Sporen nicht gekeimt) | Aktivität gegenüber M. grisea CM (M. grisea CM; 50µg/mL): +++ (mehr als 75 % der Sporen nicht gekeimt) | Aktivität gegenüber M. miehei (Mucor miehei; 10µg/mL): - | Aktivität gegenüber M. miehei (Mucor miehei; 50µg/mL): - | Aktivität gegenüber P. variotii (Paecilomyces variotii; 10µg/mL): - | Aktivität gegenüber P. variotii (Paecilomyces variotii; 50µg/mL): - | Aktivität gegenüber Nutzpflanzen: L. sativum (Lepidium sativum; 10µg/R): - (weniger als 75 % Wachstumshemmung im Vergleich zur Kontrolle) | Aktivität gegenüber Nutzpflanzen: L. sativum (Lepidium sativum; 20µg/R): - (weniger als 75 % Wachstumshemmung im Vergleich zur Kontrolle) | Aktivität gegenüber Nutzpflanzen: L. sativum (Lepidium sativum; 50µg/R): - (weniger als 75 % Wachstumshemmung im Vergleich zur Kontrolle) | Aktivität gegenüber Nutzpflanzen: S. italica (Setaria italica; 10µg/R): - (weniger als 75 % Wachstumshemmung im Vergleich zur Kontrolle) | Aktivität gegenüber Nutzpflanzen: S. italica (Setaria italica; 20µg/R): - (weniger als 75 % Wachstumshemmung im Vergleich zur Kontrolle) | Aktivität gegenüber Nutzpflanzen: S. italica (Setaria italica; 50µg/R): + (mind. 75 % Wachstumshemmung im Vergleich zur Kontrolle)
